{
  "source": "patent US20230042509A1",
  "about": "“TREATMENT FOR DISEASES CAUSED BY RNA VIRUSES” (Amerimmune LLC, priority 2021, published 2023)",
  "key": {"caspase-3": {"molecular_target": "T1, caspase-3 (Homo sapiens, UniProt P42574)", "T1 construct": "EMR suppressed the caspase-3 up-regulation in the COVID-19 plasma incubated samples; endogenous in cells; host or cells: red blood cells of healthy subjects incubated with patient plasma", "T1 sequence (P42574 29-277)": "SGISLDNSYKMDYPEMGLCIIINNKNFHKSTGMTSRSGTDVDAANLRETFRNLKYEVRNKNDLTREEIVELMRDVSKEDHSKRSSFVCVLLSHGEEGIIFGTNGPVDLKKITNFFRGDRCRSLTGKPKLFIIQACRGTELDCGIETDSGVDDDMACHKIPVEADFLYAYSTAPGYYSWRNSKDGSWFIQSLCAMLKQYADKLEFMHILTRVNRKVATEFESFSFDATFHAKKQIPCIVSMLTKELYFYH", "test": "Caspase-3 in red blood cells incubated with patient plasma", "type": "cell-based"}, "[1]": {"test_system": "PBMCs isolated from COVID-19 patient samples", "test": "\"Red ring\" contaminating RBC layer in PBMC preparation", "type": "cell-based, human", "settings": "1 micromolar, room temperature, 17 hours", "source_text": "One of the observations made during the preparation of peripheral blood mononuclear cells (PBMC) for some of the experiments described herein was the presence of a contaminating red blood cell (RBC) layer in the PBMC layer, which was referred to as a “red ring”. This “red ring” was present in all COVID-19 patient samples, with no difference between critically ill patients and those who were only on supportive care outside the ICU setting (see FIG. 12A).\nWhen PBMCs isolated from COVID-19 patient samples were incubated with Emricasan (1 micromolar) at room temperature for 17 hours, a decrease in the “red ring” was observed."}, "[2]": {"settings": "in vivo; cited from earlier work"}, "Caspase 1": {"molecular_target": "T2, Caspase 1 (Homo sapiens, UniProt P29466)", "T2 sequence (P29466 120-297 limits assumed)": "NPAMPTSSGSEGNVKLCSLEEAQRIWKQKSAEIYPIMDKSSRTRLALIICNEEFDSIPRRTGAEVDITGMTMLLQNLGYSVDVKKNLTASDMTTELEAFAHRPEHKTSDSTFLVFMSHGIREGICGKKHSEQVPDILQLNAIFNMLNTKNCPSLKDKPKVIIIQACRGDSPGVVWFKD", "T2 sequence (P29466 317-404 limits assumed)": "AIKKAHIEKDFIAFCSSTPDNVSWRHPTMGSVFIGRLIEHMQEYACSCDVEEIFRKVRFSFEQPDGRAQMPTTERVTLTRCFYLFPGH", "test": "FLICA flow cytometry of active caspase-1 in PBMCs from Emricasan-treated COVID-19(+) whole blood (Example 7)", "type": "cell-based", "settings": "1 μM, 17 hours (overnight) at room temperature on a rocker; 3 samples from COVID-19 patients"}, "mild COVID-19": {"test_system": "mild COVID-19", "test": "Phase 1 double-blinded placebo-controlled safety and tolerability study in mild-COVID-19 outpatients", "type": "in vivo, human", "method": "A double-blinded, placebo-controlled randomized safety and tolerability study (1:1 active:placebo) was performed in a number symptomatic outpatient mild-COVID-19 patients receiving standard of care therapy. A total of 13 patients were enrolled at a single site in New York City. Treatment involved administering Emricasan (EMR) (or placebo) at 25 mg BID dosing for 14 days, with follow-up for an additional month. […] This study was thus designed to evaluate safety and tolerability, with the primary endpoint being the difference, if any, between treatment-related adverse events (AEs), including severe adverse events (SAEs), if any, in the active (EMR) and placebo groups through day 14. The pharmacokinetics (PK) of EMR has been extensively studied in earlier clinical trials. Accordingly, patients in this Phase 1 study were sampled at the end of the study to confirm that Emricasan pharmacokinetics was not altered in COVID-19 patients. Secondary endpoints included various clinical and laboratory measures and patient reported outcomes (PROs) using a COVID-19-related assessment tool."}, "caspase-1": {"molecular_target": "caspase-1 (Homo sapiens, UniProt P29466)", "test": "Ex vivo stimulation study: active caspase-1 in CD4 T cells after whole blood incubation with caspase inhibitors (Example 9)", "type": "cell-based", "settings": "whole blood incubated with inhibitor, 24 hrs later with or without nigericin stimulation"}},
  "data": [
    {"molecule": "C[C@H](NC(=O)C(=O)Nc1ccccc1C(C)(C)C)C(=O)N[C@@H](CC(=O)O)C(=O)COc1c(F)c(F)cc(F)c1F", "note": "[Emricasan, (3S)-3-{[(2S)-2-{[2-(2-tert-butylanilino)-2-oxoacetyl]amino}propanoyl]amino}-4-oxo-5-(2,3,5,6-tetrafluorophenoxy)pentanoic acid]", "values": [
      {"measurement": "caspase-3 up-regulation in RBCs", "setting": "caspase-3; COVID-19 plasma incubated samples", "result": "suppressed"},
      {"measurement": "baseline caspase-3 expression levels in RBCs", "setting": "caspase-3; influenza-plasma incubated samples", "result": "did not change"},
      {"measurement": "\"red ring\" (contaminating RBC layer)", "setting": "[1]", "result": "decrease"},
      {"measurement": "safety and tolerance profile in humans", "setting": "[2]", "result": "excellent safety and tolerance profile"},
      {"measurement": "samples with inhibition of nigericin-induced Caspase-1 activity", "setting": "Caspase 1", "result": "⅓"},
      {"measurement": "serious adverse events", "setting": "mild COVID-19; 25 mg BID for 14 days", "result": "no reports of serious adverse events"},
      {"measurement": "safety and tolerability", "setting": "mild COVID-19; 25 mg BID for 14 days, 2 weeks of dosing and week 10 follow up, compared to placebo", "result": "safe and well tolerated"},
      {"measurement": "resolution of symptoms most commonly associated with mild COVID-19 (cough, headache, fatigue)", "setting": "mild COVID-19; 25 mg BID for 14 days, at day 7, continued through Day 45, patients who completed treatment", "result": "complete resolution"},
      {"measurement": "caspase biomarkers", "setting": "mild COVID-19; all subjects in the EMR treatment group", "result": "decreases"},
      {"measurement": "T-helper cell caspase-1 expression in COVID-19 samples", "setting": "caspase-1", "result": "suppressed"},
      {"measurement": "T-helper cell caspase-1 upregulation in healthy subjects", "setting": "caspase-1", "result": "prevented its upregulation"}
    ]},
    {"molecule": "CCO[C@@H]1OC(=O)C[C@@H]1NC(=O)[C@@H]1CCCN1C(=O)[C@@H](NC(=O)c1ccc(N)c(Cl)c1)C(C)(C)C", "note": "[VX765]", "values": [
      {"measurement": "T-helper cell caspase-1 expression in COVID-19 samples", "setting": "caspase-1", "result": "did not show a strong similar suppressive effect"}
    ]}
  ]
}
